Measurements taken from publication PMC4767466, “Identification of a novel platelet antagonist that binds to CLEC-2 and suppresses podoplanin-induced platelet aggregation and cancer metastasis” (Oncotarget, 2015).

How the values were obtained:
[1] = target: T1, CLEC-2 (C-type lectin-like receptor 2) (Homo sapiens, UniProt Q9P126); test: SPR (Biacore T200, CLEC-2 amine-coupled to CM5 chip, equilibrium fit); format: binding
T1 construct: gene CLEC1B; recombinant CLEC-2

[2] = target: CLEC-2 (Homo sapiens) (UniProt Q9P126); details: cited from earlier work
Sequence of CLEC-2 (Homo sapiens) (Q9P126 whole entry): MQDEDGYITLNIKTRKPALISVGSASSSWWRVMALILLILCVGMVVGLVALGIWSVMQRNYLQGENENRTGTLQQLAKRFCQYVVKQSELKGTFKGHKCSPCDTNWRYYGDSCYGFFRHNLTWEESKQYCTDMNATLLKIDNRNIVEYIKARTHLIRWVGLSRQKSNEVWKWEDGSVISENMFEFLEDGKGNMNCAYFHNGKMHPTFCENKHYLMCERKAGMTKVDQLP

T1 sequence (Q9P126 whole entry): as above

Row | Compound | Kd [1] [µM] | Kd [2] [µM]
1 | O=C(NCCNC(=O)c1cc([N+](=O)[O-])ccc1O)c1ccccc1 [2CP] | 33.2 ± 1.9 | –
2 | podoplanin (from UniProt Q86YL7) | – | 24.5
